Measurements from the NIST ThermoML archive (doi:10.1016/j.jct.2015.01.004).
“And” between values parts separate entries of the source, which are not always exact repeats. Identical values can stand only once.

Experiment: molar heat capacity at constant pressure; xn = mol fraction of the nth substance listed
Settings: 100 kPa

[Si] [silicon] + [Li]
Settings | molar heat capacity at constant pressure
46.23 K, Crystal of intercomponent compound 2, relaxation calorimeter, x2 = 0.804 | 2.145 J/K/mol and 2.142 J/K/mol
48.69 K, Crystal of intercomponent compound 1, relaxation calorimetry, x2 = 0.81 | 2.259 J/K/mol
48.7 K, Crystal of intercomponent compound 2, relaxation calorimeter, x2 = 0.804 | 2.429 J/K/mol
48.72 K, Crystal of intercomponent compound 2, relaxation calorimeter, x2 = 0.804 | 2.429 J/K/mol
50 K, Crystal of intercomponent compound 1, relaxation calorimetry + DSC, x2 = 0.81 | 2.41 J/K/mol
50 K, Crystal of intercomponent compound 2, relaxation calorimetry + DSC, x2 = 0.804 | 2.61 J/K/mol
51.29 K, Crystal of intercomponent compound 1, relaxation calorimetry, x2 = 0.81 | 2.56 J/K/mol
51.3 K, Crystal of intercomponent compound 2, relaxation calorimeter, x2 = 0.804 | 2.74 J/K/mol
54.03 K, Crystal of intercomponent compound 1, relaxation calorimetry, x2 = 0.81 | 2.89 J/K/mol
54.03 K, Crystal of intercomponent compound 2, relaxation calorimeter, x2 = 0.804 | 3.08 J/K/mol
54.04 K, Crystal of intercomponent compound 2, relaxation calorimeter, x2 = 0.804 | 3.08 J/K/mol
56.91 K, Crystal of intercomponent compound 1, relaxation calorimetry, x2 = 0.81 | 3.26 J/K/mol
56.92 K, Crystal of intercomponent compound 2, relaxation calorimeter, x2 = 0.804 | 3.45 J/K/mol
59.95 K, Crystal of intercomponent compound 1, relaxation calorimetry, x2 = 0.81 | 3.65 J/K/mol
59.96 K, Crystal of intercomponent compound 2, relaxation calorimeter, x2 = 0.804 | 3.84 J/K/mol
60 K, Crystal of intercomponent compound 1, relaxation calorimetry + DSC, x2 = 0.81 | 3.63 J/K/mol
60 K, Crystal of intercomponent compound 2, relaxation calorimetry + DSC, x2 = 0.804 | 3.81 J/K/mol
63.15 K, Crystal of intercomponent compound 1, relaxation calorimetry, x2 = 0.81 | 4.08 J/K/mol
63.17 K, Crystal of intercomponent compound 2, relaxation calorimeter, x2 = 0.804 | 4.27 J/K/mol
63.18 K, Crystal of intercomponent compound 2, relaxation calorimeter, x2 = 0.804 | 4.27 J/K/mol
66.53 K, Crystal of intercomponent compound 1, relaxation calorimetry, x2 = 0.81 | 4.52 J/K/mol
66.54 K, Crystal of intercomponent compound 2, relaxation calorimeter, x2 = 0.804 | 4.72 J/K/mol
66.55 K, Crystal of intercomponent compound 2, relaxation calorimeter, x2 = 0.804 | 4.73 J/K/mol
70 K, Crystal of intercomponent compound 1, relaxation calorimetry + DSC, x2 = 0.81 | 5.02 J/K/mol
70 K, Crystal of intercomponent compound 2, relaxation calorimetry + DSC, x2 = 0.804 | 5.21 J/K/mol
70.08 K, Crystal of intercomponent compound 1, relaxation calorimetry, x2 = 0.81 | 5.02 J/K/mol
70.1 K, Crystal of intercomponent compound 2, relaxation calorimeter, x2 = 0.804 | 5.22 J/K/mol
70.11 K, Crystal of intercomponent compound 2, relaxation calorimeter, x2 = 0.804 | 5.22 J/K/mol
73.83 K, Crystal of intercomponent compound 1, relaxation calorimetry, x2 = 0.81 | 5.54 J/K/mol
73.84 K, Crystal of intercomponent compound 2, relaxation calorimeter, x2 = 0.804 | 5.75 J/K/mol
73.86 K, Crystal of intercomponent compound 2, relaxation calorimeter, x2 = 0.804 | 5.75 J/K/mol
77.77 K, Crystal of intercomponent compound 1, relaxation calorimetry, x2 = 0.81 | 6.09 J/K/mol
77.78 K, Crystal of intercomponent compound 2, relaxation calorimeter, x2 = 0.804 | 6.31 J/K/mol
77.8 K, Crystal of intercomponent compound 2, relaxation calorimeter, x2 = 0.804 | 6.32 J/K/mol
80 K, Crystal of intercomponent compound 1, relaxation calorimetry + DSC, x2 = 0.81 | 6.43 J/K/mol
80 K, Crystal of intercomponent compound 2, relaxation calorimetry + DSC, x2 = 0.804 | 6.65 J/K/mol
81.93 K, Crystal of intercomponent compound 1, relaxation calorimetry, x2 = 0.81 | 6.66 J/K/mol
81.94 K, Crystal of intercomponent compound 2, relaxation calorimeter, x2 = 0.804 | 6.9 J/K/mol
81.95 K, Crystal of intercomponent compound 2, relaxation calorimeter, x2 = 0.804 | 6.9 J/K/mol
86.31 K, Crystal of intercomponent compound 1, relaxation calorimetry, x2 = 0.81 | 7.27 J/K/mol
86.32 K, Crystal of intercomponent compound 2, relaxation calorimeter, x2 = 0.804 | 7.53 J/K/mol
86.33 K, Crystal of intercomponent compound 2, relaxation calorimeter, x2 = 0.804 | 7.53 J/K/mol
90 K, Crystal of intercomponent compound 1, relaxation calorimetry + DSC, x2 = 0.81 | 7.82 J/K/mol
90 K, Crystal of intercomponent compound 2, relaxation calorimetry + DSC, x2 = 0.804 | 8.08 J/K/mol
90.93 K, Crystal of intercomponent compound 1, relaxation calorimetry, x2 = 0.81 | 7.89 J/K/mol
90.93 K, Crystal of intercomponent compound 2, relaxation calorimeter, x2 = 0.804 | 8.14 J/K/mol
90.95 K, Crystal of intercomponent compound 2, relaxation calorimeter, x2 = 0.804 | 8.17 J/K/mol
91 K, Crystal of intercomponent compound 2, relaxation calorimeter, x2 = 0.804 | 8.16 J/K/mol
91.01 K, Crystal of intercomponent compound 1, relaxation calorimetry, x2 = 0.81 | 7.88 J/K/mol
91.02 K, Crystal of intercomponent compound 2, relaxation calorimeter, x2 = 0.804 | 8.18 J/K/mol
95.01 K, Crystal of intercomponent compound 1, relaxation calorimetry, x2 = 0.81 | 8.41 J/K/mol
95.02 K, Crystal of intercomponent compound 2, relaxation calorimeter, x2 = 0.804 | 8.71 J/K/mol
95.04 K, Crystal of intercomponent compound 2, relaxation calorimeter, x2 = 0.804 | 8.73 J/K/mol
99.06 K, Crystal of intercomponent compound 2, relaxation calorimeter, x2 = 0.804 | 9.29 J/K/mol
99.07 K, Crystal of intercomponent compound 1, relaxation calorimetry, x2 = 0.81 | 8.94 J/K/mol
99.08 K, Crystal of intercomponent compound 2, relaxation calorimeter, x2 = 0.804 | 9.32 J/K/mol
100 K, Crystal of intercomponent compound 1, relaxation calorimetry + DSC, x2 = 0.81 | 9.14 J/K/mol
100 K, Crystal of intercomponent compound 2, relaxation calorimetry + DSC, x2 = 0.804 | 9.44 J/K/mol
103.16 K, Crystal of intercomponent compound 1, relaxation calorimetry, x2 = 0.81 | 9.52 J/K/mol
103.16 K, Crystal of intercomponent compound 2, relaxation calorimeter, x2 = 0.804 | 9.83 J/K/mol
103.18 K, Crystal of intercomponent compound 2, relaxation calorimeter, x2 = 0.804 | 9.87 J/K/mol
107.24 K, Crystal of intercomponent compound 1, relaxation calorimetry, x2 = 0.81 | 10.04 J/K/mol
107.25 K, Crystal of intercomponent compound 2, relaxation calorimeter, x2 = 0.804 | 10.37 J/K/mol
107.26 K, Crystal of intercomponent compound 2, relaxation calorimeter, x2 = 0.804 | 10.4 J/K/mol
110 K, Crystal of intercomponent compound 1, relaxation calorimetry + DSC, x2 = 0.81 | 10.39 J/K/mol
110 K, Crystal of intercomponent compound 2, relaxation calorimetry + DSC, x2 = 0.804 | 10.73 J/K/mol
111.29 K, Crystal of intercomponent compound 1, relaxation calorimetry, x2 = 0.81 | 10.53 J/K/mol
111.29 K, Crystal of intercomponent compound 2, relaxation calorimeter, x2 = 0.804 | 10.88 J/K/mol
111.31 K, Crystal of intercomponent compound 2, relaxation calorimeter, x2 = 0.804 | 10.88 J/K/mol
115.39 K, Crystal of intercomponent compound 1, relaxation calorimetry, x2 = 0.81 | 11.05 J/K/mol
115.4 K, Crystal of intercomponent compound 2, relaxation calorimeter, x2 = 0.804 | 11.39 J/K/mol
115.41 K, Crystal of intercomponent compound 2, relaxation calorimeter, x2 = 0.804 | 11.41 J/K/mol
119.47 K, Crystal of intercomponent compound 1, relaxation calorimetry, x2 = 0.81 | 11.55 J/K/mol
119.47 K, Crystal of intercomponent compound 2, relaxation calorimeter, x2 = 0.804 | 11.87 J/K/mol
119.49 K, Crystal of intercomponent compound 2, relaxation calorimeter, x2 = 0.804 | 11.92 J/K/mol
120 K, Crystal of intercomponent compound 1, relaxation calorimetry + DSC, x2 = 0.81 | 11.56 J/K/mol
120 K, Crystal of intercomponent compound 2, relaxation calorimetry + DSC, x2 = 0.804 | 11.93 J/K/mol
123.51 K, Crystal of intercomponent compound 1, relaxation calorimetry, x2 = 0.81 | 12 J/K/mol
123.51 K, Crystal of intercomponent compound 2, relaxation calorimeter, x2 = 0.804 | 12.35 J/K/mol
123.53 K, Crystal of intercomponent compound 2, relaxation calorimeter, x2 = 0.804 | 12.4 J/K/mol
127.61 K, Crystal of intercomponent compound 1, relaxation calorimetry, x2 = 0.81 | 12.47 J/K/mol
